Test systems include 786-0; A498; A549; BT-549; COLO 205; HCT-15; HL-60; HOP-92; KM12; NCI-H226; NCI-H460; OVCAR-3; OVCAR-4; OVCAR-5; OVCAR-8; SF-268; SF-539; SK-MEL-5; SNB-19; UO-31.
What all share (experiment): growth of human tumour cells (NCI), 48 h

SMILES strings stand for the structures.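 Assay format: 96-well plates, 48-hour exposure. GI50 = concentration required for 50% inhibition of growth.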 Activity calls are given as the source filed them. No stated cut-off is given here; in the data, active = GI50 up to about 1.1 µM and inactive = higher. Some results are limits rather than exact numbers.

As for `Cc1ccc2c(O)cc(-c3cccs3)nc2n1`, the GI50 in the assay on 786-0 is 15.1 µM (inactive); in the assay on A498, > 54.8 µM (inactive); in the assay with A549, 9.79 µM (inactive); with BT-549, > 100 µM (inactive); in the assay on COLO 205, 6.98 µM (inactive); in the assay on HCT-15, 3.78 µM. In addition, the GI50 in the assay with HL-60 was 2.7 µM (inactive); with HOP-92 it was 57 µM (inactive); in the assay with KM12, 2.76 µM (inactive); in the assay on NCI-H226, 8.91 µM (inactive); with NCI-H460, 5.08 µM (inactive); in the assay with OVCAR-3 it was 14.3 µM (inactive). The GI50 is > 90.6 µM (inactive) in the assay with OVCAR-4; > 22.3 µM (inactive) in the assay with OVCAR-5; 18.2 µM (inactive) with OVCAR-8; 49.8 µM (inactive) in the assay with SF-268; 8.49 µM (inactive) with SF-539; 4.72 µM (inactive) in the assay with SK-MEL-5. The figures for the GI50 in the assay with SNB-19 and in the assay with UO-31 were 11.7 µM (inactive) and 8.61 µM (inactive), respectively.

With `Cc1cc(S(=O)(=O)[N-]C(=C(C#N)C#N)[n+]2ccc(N(C)C)cc2)c(SCC(=O)O)cc1Cl`, the GI50 in the assay on 786-0 is > 100 µM (inactive); in the assay with A498 it was > 100 µM (inactive); with A549 it was > 100 µM (inactive); in the assay with BT-549, > 100 µM (inactive); with COLO 205 it was > 100 µM (inactive); with HCT-15 it was over 100 µM. Further, the GI50 in the assay with HL-60 was > 100 µM (inactive); with HOP-92, 10 µM (inactive); in the assay on KM12 it was > 100 µM (inactive); in the assay on NCI-H226, > 100 µM (inactive); in the assay with NCI-H460, > 100 µM (inactive); in the assay on OVCAR-3 it was > 100 µM (inactive). Also, the GI50 in the assay on OVCAR-4, in the assay on OVCAR-5, with OVCAR-8, in the assay with SF-268, with SF-539 and in the assay on SK-MEL-5 was > 100 µM (inactive) each time. Besides, the GI50 in the assay with SNB-19 and in the assay on UO-31 was > 100 µM (inactive) each time.

With `C=C(C)C(=O)OC1CC2(C)OC(=CC2=O)C(C)CC2OC(=O)C(=C)C12` (stereo not given), the GI50 in the assay with 786-0 is 3.24 µM (inactive); with A498 it was 15.2 µM (inactive); in the assay with A549, 18.9 µM (inactive); in the assay with BT-549, 6.25 µM (inactive); with COLO 205 it was 1.23 µM (inactive); in the assay with HCT-15, 1.65 µM. For the same compound, the GI50 in the assay on HL-60 is 0.461 µM (active); in the assay on HOP-92 it was 5.56 µM (inactive); in the assay with KM12 it was 19.8 µM (inactive); in the assay with NCI-H226, 19.1 µM (inactive); in the assay with NCI-H460 it was 11.9 µM (inactive); in the assay on OVCAR-3, 5.15 µM (inactive). The GI50 was 3.99 µM (inactive) in the assay on OVCAR-4; 10.4 µM (inactive) in the assay on OVCAR-5; 8.41 µM (inactive) in the assay on OVCAR-8; 26.7 µM (inactive) in the assay on SF-268; 3.91 µM (inactive) in the assay with SF-539; 3.52 µM (inactive) in the assay on SK-MEL-5. Further, the figures for the GI50 in the assay with SNB-19 and with UO-31 were 21.4 µM (inactive) and 4.9 µM (inactive), respectively.

In the case of `COc1ccc2c(c1)OC(c1cccnc1)C(c1ccccc1)C2=O` (stereo not given), the GI50 was 86.1 µM (inactive) in the assay with 786-0; > 100 µM (inactive) in the assay with A498; > 100 µM (inactive) in the assay on A549; > 100 µM (inactive) in the assay on BT-549; > 100 µM (inactive) with COLO 205; over 100 µM in the assay on HCT-15. Also, the GI50 in the assay with HL-60 was > 100 µM (inactive); in the assay on HOP-92 it was 49.5 µM (inactive); in the assay with KM12, > 100 µM (inactive); in the assay on NCI-H226 it was 98.9 µM (inactive); in the assay with NCI-H460, > 100 µM (inactive); with OVCAR-3, > 100 µM (inactive). The GI50 was > 100 µM (inactive) with OVCAR-4; > 100 µM (inactive) with OVCAR-5; 80.2 µM (inactive) with OVCAR-8; 61 µM (inactive) with SF-268; > 100 µM (inactive) with SF-539; > 100 µM (inactive) in the assay with SK-MEL-5. For the same compound, the GI50 in the assay with SNB-19 is 66.7 µM (inactive); in the assay on UO-31, > 100 µM (inactive).

In the case of `C/C(=N\N=C(/S)N(C)C)c1cccc[n+]1[O-]`, the GI50 is 28.6 µM (inactive) in the assay on 786-0; > 100 µM (inactive) with A498; 59.7 µM (inactive) in the assay with A549; 49.9 µM (inactive) in the assay on BT-549; 0.82 µM (active) in the assay with COLO 205; 1.45 µM with HCT-15. Also, the GI50 was 1.03 µM (active) in the assay on HL-60; 22.3 µM (inactive) in the assay with HOP-92; 45.5 µM (inactive) with KM12; 54.6 µM (inactive) in the assay on NCI-H226; 33.6 µM (inactive) in the assay on NCI-H460; 5.12 µM (inactive) with OVCAR-3. For the same compound, the GI50 in the assay on OVCAR-4 is 46.8 µM (inactive); in the assay on OVCAR-5 it was 35.9 µM (inactive); in the assay with OVCAR-8, 23.7 µM (inactive); in the assay with SF-268, 38.2 µM (inactive); in the assay on SF-539, 47.4 µM (inactive); in the assay with SK-MEL-5, 27.7 µM (inactive). In addition, the results for the GI50 with SNB-19 and with UO-31 were 91 µM (inactive) and 23.2 µM (inactive), respectively.

In the case of `On1c(-c2ccccc2)nc2ccccc2c1=S`, the GI50 was 3.95 µM (inactive) with 786-0; 42.2 µM (inactive) in the assay with A498; 2.84 µM (inactive) in the assay on A549; > 100 µM (inactive) in the assay with BT-549; 3.12 µM (inactive) in the assay on COLO 205; 1.36 µM with HCT-15. Further, the GI50 with HL-60 is 2.4 µM (inactive); in the assay on HOP-92, > 100 µM (inactive); in the assay on KM12 it was 3.18 µM (inactive); in the assay on NCI-H226, 9.16 µM (inactive); in the assay with NCI-H460, 0.583 µM (active); in the assay on OVCAR-3 it was 4.39 µM (inactive). The GI50 in the assay on OVCAR-4 is 2.22 µM (inactive); in the assay on OVCAR-5, > 100 µM (inactive); in the assay on OVCAR-8, 4 µM (inactive); with SF-268, 3.47 µM (inactive); in the assay on SF-539, 4.32 µM (inactive); in the assay with SK-MEL-5, 3.58 µM (inactive). For the same compound, the GI50 with SNB-19 was 12.3 µM (inactive); with UO-31, 3.39 µM (inactive).

Consider `OCCN1CCN(c2nc(N3CCCC3)c3nc(Cl)c(NCc4ccccc4)nc3n2)CC1`, for which the GI50 in the assay with 786-0 is 1.95 µM (inactive); with A498, 12.5 µM (inactive); in the assay on A549, 6.59 µM (inactive); in the assay with BT-549 it was 6.84 µM (inactive); in the assay with COLO 205 it was 2.47 µM (inactive); with HCT-15, 2.84 µM. Further, the GI50 with HL-60 is 3.81 µM (inactive); in the assay on HOP-92, 5.16 µM (inactive); in the assay with KM12, 4.97 µM (inactive); in the assay on NCI-H226 it was 17.6 µM (inactive); in the assay on NCI-H460, 5.58 µM (inactive); in the assay with OVCAR-3, 8.02 µM (inactive). For the same compound, the GI50 in the assay on OVCAR-4 is 11.2 µM (inactive); in the assay with OVCAR-5 it was 13.1 µM (inactive); in the assay on OVCAR-8 it was 8.77 µM (inactive); in the assay on SF-268, 8.85 µM (inactive); with SF-539, 5.81 µM (inactive); in the assay on SK-MEL-5, 3.51 µM (inactive). Moreover, the GI50 was 7.62 µM (inactive) in the assay with SNB-19 and 4.89 µM (inactive) in the assay with UO-31.

Source of the values: ChEMBL document CHEMBL1201862, “PubChem BioAssay data set” (2004).
